Experimental data taken from ChEMBL document CHEMBL5338828, “Structure-Activity Relationships of Bis-Intercalating Peptides and Their Application as Antibody-Drug Conjugate Payloads” (J Med Chem, 2023).

Key:
[1] = Binding affinity to biotinylated hairpin DNA (unknown origin) assessed as binding constant by SPR analysis
[2] = Retention time of the compound by HPLC analysis; type: physicochemical

## CC[C@H](C)[C@H]1COC[C@@H](NC(=O)c2nc3ccccc3cc2O)C(=O)N2CCCC[C@H]2C(=O)NCC(=O)N(C)CC(=O)N(C)[C@@H](C(C)C)C(=O)NC[C@@H](NC(=O)c2nc3ccccc3cc2O)C(=O)N2CCCC[C@H]2C(=O)NCC(=O)N(C)CC(=O)N1C
[1]
  Kd: 50 nM
[2]
  Retention_time: 19.4 min

## CC(C)[C@@H]1NC(=O)CN(C)C(=O)CNC(=O)[C@@H]2CCCCN2C(=O)[C@H](NC(=O)c2nc3ccccc3cc2O)CNC(=O)[C@H](C(C)C)NC(=O)CN(C)C(=O)CNC(=O)[C@@H]2CCCCN2C(=O)[C@H](NC(=O)c2nc3ccccc3cc2O)CNC1=O
[1]
  Kd: 9000 nM
[2]
  Retention_time: 14.6 min

## CCN1C(=O)CN(C)C(=O)CNC(=O)[C@@H]2CCCCN2C(=O)[C@H](NC(=O)c2nc3ccccc3cc2O)CNC(=O)[C@H](C(C)C)N(CC)C(=O)CN(C)C(=O)CNC(=O)[C@@H]2CCCCN2C(=O)[C@H](NC(=O)c2nc3ccccc3cc2O)CNC(=O)[C@@H]1C(C)C
[1]
  Kd: 500 nM
[2]
  Retention_time: 17.9 min

## CC(C)[C@H]1C(=O)NC[C@@H](NC(=O)c2nc3ccccc3cc2O)C(=O)N2CCCC[C@H]2C(=O)NCC(=O)N(C)CC(=O)N(C)[C@@H](c2ccccc2)C(=O)NC[C@@H](NC(=O)c2nc3ccccc3cc2O)C(=O)N2CCCC[C@H]2C(=O)NCC(=O)N(C)CC(=O)N1C
[1]
  Kd: 1000 nM
[2]
  Retention_time: 17.2 min

## CN1CC(=O)N2CCCCC[C@H]2C(=O)NC[C@@H](NC(=O)c2nc3ccccc3cc2O)C(=O)N2CCCC[C@H]2C(=O)NCC(=O)N(C)CC(=O)N2CCCCC[C@H]2C(=O)NC[C@@H](NC(=O)c2nc3ccccc3cc2O)C(=O)N2CCCC[C@H]2C(=O)NCC1=O
[1]
  Kd: 770 nM
[2]
  Retention_time: 15.8 min

## CC(C)[C@H]1C(=O)NC[C@@H](NC(=O)c2nc3ccccc3cc2O)C(=O)N2CCCC[C@H]2C(=O)NCC(=O)N(C)CC(=O)N(C)C(C)(C)C(=O)NC[C@@H](NC(=O)c2nc3ccccc3cc2O)C(=O)N2CCCC[C@H]2C(=O)NCC(=O)N(C)CC(=O)N1C
[1]
  Kd: 700 nM
[2]
  Retention_time: 15.8 min

## CCN1CC(=O)N(C)[C@@H](C(C)C)C(=O)NC[C@@H](NC(=O)c2nc3ccccc3cc2O)C(=O)N2CCCC[C@H]2C(=O)NCC(=O)N(CC)CC(=O)N(C)[C@@H](C(C)C)C(=O)NC[C@@H](NC(=O)c2nc3ccccc3cc2O)C(=O)N2CCCC[C@H]2C(=O)NCC1=O
[1]
  Kd: 300 nM
[2]
  Retention_time: 18.5 min

## CC(C)[C@H]1C(=O)NC[C@@H](NC(=O)c2nc3ccccc3cc2O)C(=O)N2CCCC[C@H]2C(=O)NCC(=O)N(C)CC(=O)N(C)C2(CC2)C(=O)NC[C@@H](NC(=O)c2nc3ccccc3cc2O)C(=O)N2CCCC[C@H]2C(=O)NCC(=O)N(C)CC(=O)N1C
[1]
  Kd: 700 nM
[2]
  Retention_time: 15.4 min

## CC(C)[C@H]1C(=O)NC[C@@H](NC(=O)c2nc3ccccc3cc2O)C(=O)N2CCCC[C@H]2C(=O)NCC(=O)N(C)CC(=O)N(C)C2(CCC2)C(=O)NC[C@@H](NC(=O)c2nc3ccccc3cc2O)C(=O)N2CCCC[C@H]2C(=O)NCC(=O)N(C)CC(=O)N1C
[1]
  Kd: 300 nM
[2]
  Retention_time: 17 min

## CC[C@@H](C)[C@H]1C(=O)NC[C@@H](NC(=O)c2nc3ccc(Br)cc3cc2O)C(=O)N2CCCC[C@H]2C(=O)NCC(=O)N(C)CC(=O)N(C)[C@@H]([C@H](C)CC)C(=O)NC[C@@H](NC(=O)c2nc3ccc(Br)cc3cc2O)C(=O)N2CCCC[C@H]2C(=O)NCC(=O)N(C)CC(=O)N1C
[2]
  Retention_time: 21 min

## C[C@H]1NC(=O)[C@@H]2CCCCN2C(=O)CN(C)C(=O)CNC(=O)[C@@H]2CCCCN2C(=O)[C@H](NC(=O)c2nc3ccccc3cc2O)[C@@H](C)NC(=O)[C@@H]2CCCCN2C(=O)CN(C)C(=O)CNC(=O)[C@@H]2CCCCN2C(=O)[C@@H]1NC(=O)c1nc2ccccc2cc1O
[1]
  Kd: 9 nM
[2]
  Retention_time: 16.7 min
